Here are results for three molecules from ChEMBL document CHEMBL1143362, “Development of dual-acting prodrugs for circumventing multidrug resistance” (Bioorg Med Chem Lett, 2009).

Series [1] has as its system Mus musculus. The experiment in a line: Toxicity in NMRI nude mouse xenografted with adriablastin-resistant human MT3 cells expressing p-glycoprotein assessed as body weight loss at 5 mg/kg, ip administered on day 12, 13, 19, 20 prior to doxorubicin challenge of 6 mg/kg, iv on day 13 and 20. It is filed as organism-based. The following applies: in vivo.
The test system of series [2] is MT3. Nature of the series: Potentiation of doxorubicin-induced cytotoxicity in adriablastin-resistant human MT3 cells expressing p-glycoprotein xenografted in NMRI nude mouse at 5 mg/kg, ip administered on day 12, 13, 19, 20 prior to doxorubicin challenge of 6 mg/kg, iv on day 13 and 20. In kind it is functional, organism-based. (In general: A xenograft is tissue or cells of one species grown in another, often human tumour cells in immunodeficient mice.)

For series [3], the system named is Mus musculus. The experiment in a line: Toxicity in nude mouse assessed as body weight change at 100.8 mg/kg, iv measured daily for 13 days. It is filed as organism-based. On the set-up: dose 100.8 mg/kg, route intravenous. To be noted: in vivo, 312 h.
The test system of series [4] is MT3. The experiment in a line: Antitumor activity against adriablastin-resistant human MT3 cells expressing p-glycoprotein xenografted in NMRI nude mouse at 6 mg/kg, iv administered on day 13 and 20. It is filed as functional, organism-based. Further details: dose 6 mg/kg.

Structures are written as SMILES. The source made the active and inactive calls. The rule behind the calls is not given here.

As for `CCOC/C=C/c1ccc(-c2nc(-c3ccc(N(C)C)cc3)c(-c3ccc(NC(=O)CCN)cc3)[nH]2)cc1`, in the series with Mus musculus [1], the Activity is reported as -23%. The outcome in the series with MT3 [2] was Active.
On to `CCOC/C=C/c1ccc(-c2nc(-c3ccc(N(C)C)cc3)c(-c3ccc(NC(=O)CCNC(=O)OCc4ccc(NC(=O)[C@H](CCCCN)NC(=O)[C@H](Cc5ccccc5)NC(=O)CC[C@H](NC(=O)CCCCCN5C(=O)C=CC5=O)C(=O)N[C@@H](Cc5ccccc5)C(=O)N[C@@H](CCCCN)C(=O)Nc5ccc(COC(=O)N[C@H]6C[C@H](O[C@H]7C[C@@](O)(C(=O)CO)Cc8c(O)c9c(c(O)c87)C(=O)c7c(OC)cccc7C9=O)O[C@@H](C)[C@H]6O)cc5)cc4)cc3)[nH]2)cc1.O=C(O)C(F)(F)F.O=C(O)C(F)(F)F`, for which the Activity result in the series on Mus musculus [3] is given as “Non-toxic”.
In the case of `COc1cccc2c1C(=O)c1c(O)c3c(c(O)c1C2=O)C[C@@](O)(C(=O)CO)C[C@@H]3O[C@H]1C[C@H](N)[C@H](O)[C@H](C)O1`, the result in the series with MT3 [4] was inactive.
